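Method: 48-hour compound exposure of cells in 96-well plates, five concentrations, linear interpolation of endpoints. The concentration for full growth arrest is given as TGI.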
Key:
Test in all cases: DTP human tumour cell line panel, 48 h
EKVX NSCLC = test system: EKVX NSCLC
CCRF-CEM leukemia = test system: CCRF-CEM leukemia
COLO 205 colon = test system: COLO 205 colon
UO-31 renal = test system: UO-31 renal
MDA-MB-435 = test system: MDA-MB-435
MDA-N = test system: MDA-N
MOLT-4 leukemia = test system: MOLT-4 leukemia
NCI-H522 lung = test system: NCI-H522 lung
BT-549 breast = test system: BT-549 breast
SF-295 CNS = test system: SF-295 CNS
UACC-257 melanoma = test system: UACC-257 melanoma

| Compound | TGI (EKVX NSCLC) | TGI (CCRF-CEM leukemia) | TGI (COLO 205 colon) | TGI (UO-31 renal) | TGI (MDA-MB-435) | TGI (MDA-N) | TGI (MOLT-4 leukemia) | TGI (NCI-H522 lung) | TGI (BT-549 breast) | TGI (SF-295 CNS) | TGI (UACC-257 melanoma) |
| --- | --- | --- | --- | --- | --- | --- | --- | --- | --- | --- | --- |
| CCCCC(C#N)(OP1(=O)OC(c2ccccc2)C(C)N1C)c1ccccc1 (stereo not drawn) | 39.8 µM | 40.3 µM | 35.4 µM | 31.4 µM | 33.2 µM | 31.3 µM | 35.9 µM | 33.7 µM | 43.6 µM | 32.3 µM | 33.7 µM |
| C[C@]12CC[C@H]3[C@@H](CC=C4C[C@@H](N5CCCC5)CC[C@@]43C)[C@@H]1C[C@H](N1CCOCC1)[C@@H]2O | > 100 µM | > 100 µM | > 100 µM | > 100 µM | > 100 µM | > 100 µM | > 100 µM | > 100 µM | > 100 µM | > 100 µM | > 100 µM |
| Cc1cnc2sn(-c3ccc(Oc4ccccc4)cc3)c(=O)c2c1 | 27.7 µM | > 100 µM | 47.1 µM | 42.8 µM | > 100 µM | 51.1 µM | > 100 µM | 25.3 µM | 42.2 µM | 39.3 µM | 43.7 µM |
| COC(=O)C1Cc2c(OC)ccc(OC)c2CC(C(=O)OC)C1=O (stereo not drawn) | > 100 µM | > 100 µM | > 100 µM | > 100 µM | > 100 µM | > 100 µM | > 100 µM | > 100 µM | > 100 µM | > 100 µM | > 100 µM |
| Cc1[nH]c2c(c1C)S(=O)(=O)c1cc3ccccc3nc1N2 | > 100 µM | 45.8 µM | 46.3 µM | 56.9 µM | > 100 µM | 39.4 µM | > 100 µM | 52 µM | > 100 µM | > 100 µM | > 100 µM |
| CCN(CC)CC1CCCCN1CC(=O)N1c2ccccc2NC(=O)CC1C (stereo not drawn) | > 100 µM | > 100 µM | > 100 µM | > 100 µM | > 100 µM | > 100 µM | > 100 µM | > 100 µM | > 100 µM | > 100 µM | > 100 µM |
| COC(=O)NCCc1[nH]nc2c1C(=O)C=C(N1CCOCC1)C2=O | > 100 µM | > 100 µM | > 100 µM | > 100 µM | > 100 µM | > 100 µM | > 100 µM | > 100 µM | > 100 µM | > 100 µM | > 100 µM |
| CCC(CON(C)c1ccccc1)(SC)SC | > 100 µM | > 100 µM | > 100 µM | > 100 µM | > 100 µM | > 100 µM | > 100 µM | > 100 µM | > 100 µM | > 100 µM | > 100 µM |
